Here are results for three compounds from patent publication US9649314B2, “Pyrimido[4,5-b]quinoline-4,5(3H,10H)-diones” (NOVARTIS AG, priority 2012, dated 2017).

Experiment [1] concerns α-L-iduronidase W402X. Put plainly: α-L-iduronidase-W402X assay (restored enzyme activity in cell lysates, 4-MU iduronide substrate). It counts as cell-based, human. The note with it: 48 h treatment; for W402X Amax [%]: paromomycin 14 mM as reference control; for AC50: Homo sapiens. How it is done: (§1) Activity of compounds of the present invention was examined using a functional readout for two clinically common stop codon (TAG) mutants (Q70X, W402X) of the lysosomal enzyme α-L-iduronidase. Lack of α-L-iduronidase expression in such stop codon patients leads to the lysosomal storage disorder Mucopolysaccharidosis I (MPSI) also called Hurler syndrome.
(§2) Reporter constructs analogous to constructs above were expressed. In the assay, 2500 cells/well were treated for 48 h with compound, washed with PBS and lysed (0.4 M Sodiumformate, 0.1% NaN3, 0.9% NaCl, 0.2% Triton, pH 3.5). Restored α-L-iduronidase activity in cell lysates was measured with the fluoresecent 4-MU iduronide substrate (4 Methylumbelliferyl α-L-iduronide) after 45 min incubation. Again, paromomycin was used as reference control (14 mM).

For experiment [2], the system named is α-L-iduronidase Q70X. In words: α-L-iduronidase-Q70X assay (restored enzyme activity in cell lysates, 4-MU iduronide substrate). The note with it: 48 h treatment; for Q70X Amax [%]: paromomycin 14 mM as reference control; for AC50: Homo sapiens. It counts as cell-based, human. How it is done:
as §1, §2

In experiment [3] the test system is CFTR-Y122X. Put plainly: CFTR-Y122X assay (dual reporter isogenic Hek293 cell lines, Renilla luminescence readthrough). The settings on record: Homo sapiens, HEK293, nonsense mutation suppression, 24 h incubation; for Emax: 100% = 14 mM paromomycin, tested up to 100 μM, read-out: Amax [%]. It counts as cell-based. In outline: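 Stable isogenic HEK dual-reporter line (eGFP–CFTR Y122X TGA PTC–myc–Renilla); 2000 cells/well, 24 h, then compound (10 μM; tested up to 100 μM) 24 h at 37 °C. Renilla luminescence normalised to neutral (0%) and 14 mM paromomycin (100%); wildtype construct counterscreen.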

Experiment [4] deals with human coagulation factor F9 containing the R29X (TAG) mutation. In words: F9-R29X assay (full length F9 expression in isogenic HekR4 cells, imaging / F9 ELISA). It counts as cell-based. The note with it: nonsense mutation suppression; for AC50: Homo sapiens. As to the method:
Activity of compounds of the present invention was examined using reporter constructs of full length human coagulation factor F9 containing the R29X (TAG) mutation known from hemophilia B patients (“F9-R29X assay”). Full length F9 cDNA was stably expressed in the above isogenic HekR4 cell background. Stop codon readthrough and full length F9 expression was determined with a miniaturized confocal high throughput imaging assay. In paraformaldehyde fixed and permeabilized cells (10 uM compound; 24 h incubation) F9 expression was identified with a commercial F9 antibody raised against the F9 C-terminus. […] F9 staining intensity (Alexa-Fluor 488) and Draq5 nuclear staining served as readout for data calculation. Percent activity was measured in comparison to high (active control) and low controls (DMSO solvent).
Background: An ELISA detects its analyte on a solid surface through an enzyme-linked reagent.

By AC50 is commonly meant the midpoint of the concentration-response curve, whichever way the signal moves. Take `Cn1c2ccccc2c(=O)c2c(=O)n(C3CCCCC3)c(-c3cccs3)nc21` [Example 2.17, 3-cyclohexyl-10-methyl-2-(thiophen-2-yl)pyrimido[4,5-b]quinoline-4,5(3H,10H)-dione]: in experiment [1], the “W402X Amax [%]” value came out at 211% and the activity was half-maximal at 2900 nM (AC50). Besides, in experiment [2], the “Q70X Amax [%]” value came out at 265% and the AC50 amounted to 2100 nM. Also, in experiment [3], the Emax is 293% and the activity was half-maximal at 5800 nM (AC50). For the same compound, in experiment [4], the AC50 turned out to be 5400 nM and the “Amax [%]” value is listed as 157%.

For `Cn1c2ccccc2c(=O)c2c(=O)n(C3CCCCC3)c(-c3ccco3)nc21` [Example 2.20, 3-cyclohexyl-2-(furan-2-yl)-10-methylpyrimido[4,5-b]quinoline-4,5(3H,10H)-dione], in experiment [1], the “W402X Amax [%]” value came to 189% and half-maximal activity (AC50) was put at 900 nM. Also, in experiment [2], the “Q70X Amax [%]” value came out at 386% and the AC50 was 1000 nM. Also, in experiment [3], the Emax is 201% and the AC50 turned out to be 2300 nM. Moreover, in experiment [4], the AC50 is 5500 nM and the “Amax [%]” value is recorded as 158%.

With `CCc1nc2c(c(=O)c3ccccc3n2C)c(=O)n1C1CCCCCC1` [Example 2.31, 3-cycloheptyl-2-ethyl-10-methylpyrimido[4,5-b]quinoline-4,5(3H,10H)-dione], in experiment [1], the “W402X Amax [%]” value was determined as 300% and the AC50 is 2900 nM. In experiment [2], the “Q70X Amax [%]” value came to 438% and the AC50 is 1700 nM. Further, in experiment [3], the Emax turned out to be 67% and the activity was half-maximal at 2500 nM (AC50). In experiment [4], the AC50 turned out to be 1900 nM and the “Amax [%]” value is on record as 167%.
